Assay results from PMC7765321, “Novel Isoniazid-Carborane Hybrids Active In Vitro against Mycobacterium tuberculosis” (Pharmaceuticals, 2020).
Where “and” joins values, the source holds several entries; their conditions need not be identical. Equal values may be shown once.

The compounds below were run on Mtb ΔkatG mutant strain.
Assay type: cell-based, Mycobacterium tuberculosis

| Compound | katG MIC50 | katG MIC99 |
| --- | --- | --- |
| NNC(=O)c1ccncc1 [4 (INH), pyridine-4-carbohydrazide, reference compound] | 1100 µM | 1500 µM |
| N′-((1,7-dicarba-closo-dodecaboran-1-yl)methylidene)isonicotinohydrazide [Compound 14] | 260 µM | 340 µM |
| N′-((1,12-dicarba-closo-dodecaboran-1-yl)ethylidene)isonicotinohydrazide [Compound 22] | 160 µM | 330 µM |
| N′-((1,2-dicarba-closo-dodecaboran-1-yl)propanoyl)isonicotinohydrazide [Compound 8] | 150 µM | 300 µM |
| N′-((1,7-dicarba-closo-dodecaboran-1-yl)ethylidene)isonicotinohydrazide [Compound 21] | 160 µM | 240 µM |
| N′-((1,2-dicarba-closo-dodecaboran-1-yl)ethyl)isonicotinohydrazide [Compound 23] | 97.60 µM | 240 µM |
| N′-((1,12-dicarba-closo-dodecaboran-1-yl)propanoyl)isonicotinohydrazide [Compound 10] | 150 µM | 300 µM |
| N′-((1,2-dicarba-closo-dodecaboran-1-yl)ethylidene)isonicotinohydrazide [Compound 20] | 160 µM | 240 µM |
| N′-((1,7-dicarba-closo-dodecaboran-1-yl)propanoyl)isonicotinohydrazide [Compound 9] | 150 µM | 300 µM |
| N′-((1,12-dicarba-closo-dodecaboran-1-yl)ethyl)isonicotinohydrazide [Compound 25] | 3.25 µM | 24.4 µM and 24.40 µM |
| N′-((1,12-dicarba-closo-dodecaboran-1-yl)methylidene)isonicotinohydrazide [Compound 15] | 510 µM | 680 µM |
| N′-((7,8-dicarba-nido-undecaboranyl)methylidene)isonicotinohydrazide [Compound 16] | 500 µM | >660 µM |
| N′-((1,7-dicarba-closo-dodecaboran-1-yl)ethyl)isonicotinohydrazide [Compound 24] | 81.30 µM | 160 µM |
